Measurements: patent publication US5140037A, “Treatment of central nervous system disorders with imidazole angiotensin-II receptor antagonists” (E. I. du Pont de Nemours and Company, priority 1990, dated 1992)
“Also recorded” adds a separate entry of the source. Values belong to the molecule of their own block, whether it stands above or below them.

Assays:
[1] = system: memory of previously learned tasks; conditions: in vivo; cited from earlier work
[2] = system: renin-induced amnesia (passive avoidance); experiment: Renin-disrupted passive avoidance retention; type: in vivo, male Sprague-Dawley rats; conditions: for effect on renin-induced amnesia: IVT, co-administered with renin
Description: RENIN-DISRUPTED PASSIVE AVOIDANCE RETENTION
Experimentally naive male Sprague-Dawley rats 100 to 125 days oil (Charles River Breeding Laboratories, Kingston, N.Y.), weighing between 175 to 200 gm were used. The animals were housed four per cage (45.0L×20.0H×26.0W cm) with free access to food and water. They were maintained on a 12 h light/dark cycle (lights on 0600 h) and at a room temperature of 22±1° C. with relative humidity of 50±10%.
The experimental sessions were conducted in a two-compartment passive avoidance box. One compartment, made of clear plastic with a perforated clear plastic floor, measured 21(L)×24.5(H)×17(W) cm and was illuminated with a 60 watt incandescent light bulb placed 36 cm above the floor. The other compartment, made of black plastic, measured 30.5 (L)×20.3 (H)×21.5 (W) cm with a floor made of 4 mm stainless steel rods spaced 1.2 cm apart. A grid floor shocker (Coulbourn Instruments) was connected to the steel rods and provided scrambled footshock. The two compartments were separated by a solenoid-operated slide door (Lafayette Instrument Co., Lafayette, Ind.). An electronic counter (Coulbourn Instruments), triggered by the opening or closing of the slide door, recorded acquisition and retention latencies (latencies were defined as the time it took an animal to enter the dark compartment).
Passive avoidance training began by placing the rat into the clear compartment of the two-compartment passive avoidance box. Following a 10 sec delay, the slide door to the dark compartment was raised. Once the rat moved completely into the dark compartment (all four paws on the shock grid floor) the slide door was lowered, and after a 10 sec. delay, a 1.0 mA shock was applied to the grid floor for three sec. A second three s shock was delivered after an additional 10 sec delay. The rats were immediately removed from the dark compartment and returned to their home cage. A retention test was given 24 h later. It proceeded in the same manner as the training session except that no shock was applied to the grid floor when the rats were provided access to the dark compartment for a maximum of 300 sec.
All drugs were administered IVT 60 minutes prior to acquisition training in a volume of 5 μl. Doses are expressed as the free base weight of each compound.

AII-1 receptor subtype = experiment: Block of AII receptor subtypes, AII-1 (statement in words); type: binding
AII-1 receptor = experiment: AII-1 site binding: displacement of [125I]AII in adrenal cortex microsomes in presence of 10^-5 M EXP655 (Table 1); design: species or system rat; conditions: 10^-5 M EXP655 present, [125I]AII displacement
[3] = system: passive avoidance response; conditions: injected into dorsal neostriatum; cited from earlier work
[4] = system: potassium-stimulated release of [3H]ACh; conditions: rat entorhinal cortex, cited from earlier work
AII-2 receptor subtype = experiment: Block of AII receptor subtypes, AII-2 (statement in words); type: binding
AII-2 receptor = biological target: T1, AII-2 receptor (Rattus norvegicus, UniProt P35351); experiment: biochemical
T1 sequence (P35351 1-363): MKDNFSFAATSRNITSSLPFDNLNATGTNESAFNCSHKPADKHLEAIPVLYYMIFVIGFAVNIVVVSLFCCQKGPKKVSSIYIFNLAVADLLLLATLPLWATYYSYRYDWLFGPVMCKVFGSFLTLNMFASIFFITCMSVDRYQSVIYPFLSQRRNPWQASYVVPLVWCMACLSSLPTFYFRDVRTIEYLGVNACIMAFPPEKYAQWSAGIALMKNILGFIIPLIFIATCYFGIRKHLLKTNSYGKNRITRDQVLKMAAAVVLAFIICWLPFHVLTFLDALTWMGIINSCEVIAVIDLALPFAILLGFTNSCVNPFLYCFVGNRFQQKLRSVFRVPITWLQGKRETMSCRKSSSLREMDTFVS
Description: IC50 was determined by displacement of [^125 I]AII from the receptor by the indicated compound.

[5] = system: AII binding sites in the brain; experiment: Binding of AII antagonists to sections of brain slices
uphill avoidance = conditions: acute, 30 mg/kg PO; cited from earlier work
[6] = system: scopolamine-induced amnesia; conditions: three times per day, 1, 3 and 10 mg/kg PO; cited from earlier work
[7] = system: scopolamine-induced impairment of eight arm radial maze performance; conditions: 3 mg/kg IP; cited from earlier work
[8] = system: ACh in the striatum and hypothalamus; conditions: acute or repeated administration; cited from earlier work
avoidance learning = conditions: cited from earlier work
light/dark habituation = conditions: cited from earlier work
[9] = system: AII in cerebrospinal fluid (CSF); conditions: cited from earlier work

Molecule: NCCCC[C@H](OP(=O)(O)CCCCc1ccccc1)C(=O)N1CCC[C@H]1C(=O)O [SQ 29852]
anticholinergic effect on performance [1]: ameliorate, at least in part, an anticholinergic effect on performance | effects on memory of previously learned tasks [1]: protective effects on memory of previously learned tasks

AII-1 receptor block / affinity (AII-1 receptor subtype): AII-1 receptor antagonists
Molecule: CCCc1nc(C(F)(F)F)c(CO)n1Cc1ccc(-c2ccccc2-c2nnn[nH]2)cc1 [Compound D, 2-n-propyl-5-hydroxymethyl-1-[(2'-(1H-tetrazol-5-yl)biphenyl-4-yl)methyl]-4-trifluoromethylimidazole]
effect on renin-induced amnesia [2]: protected against the amnesia

AII-1 receptor block / affinity (AII-1 receptor subtype): AII-1 receptor antagonists
Molecule: CCCc1nc(C(F)(F)F)c(C(=O)O)n1Cc1ccc(-c2ccccc2-c2nnn[nH]2)cc1 [Compound C, 2-n-propyl-1-[(2'-(1H -tetrazol-5-yl)biphenyl-4-yl)methyl]-4-trifluoromethylimidazole-5-carboxylic acid]
effect on renin-induced amnesia [2]: protected against the amnesia

Molecule: AII: Angiotensin II (AII), a circulating hormone, now thought to act as a neuropeptide in the central nervous system (DRVYIHPF; Angiotensin-2; UniProt P01019 25-32, looked up)
IC50 (AII-1 receptor): 1.5 nM | retention of passive avoidance response [3]: showed a disruption in retention of a PA response | basal ACh levels [4]: without effects on basal levels | potassium-stimulated release of ACh [4]: reduced potassium-stimulated release of ACh

IC50 (AII-1 receptor): 22 nM | IC50 (AII-2 receptor): 2400 nM
Molecule: CCCc1nc(-c2ccccc2)c(C=O)n1Cc1ccc(-c2ccccc2-c2nnn[nH]2)cc1 [Compound A, 1-[(2'-(1H tetrazol-5-yl)biphenyl-4-yl)methyl]-4-phenyl-2-propylimidazole-5-carboxaldehyde]
AII-1 receptor block / affinity (AII-1 receptor subtype): show affinity for both AII-1 and AII-2 receptors | AII-2 receptor block / affinity (AII-2 receptor subtype): show affinity for both AII-1 and AII-2 receptors

IC50 (AII-1 receptor): 300000 nM
Molecule: Cc1cc(Cn2cnc3c2CC(C(=O)O)N(C(=O)C(c2ccccc2)c2ccccc2)C3)ccc1N (stereo not drawn) [EXP655, 1-(4-amino-3-methylphenyl)methyl-5-diphenylacetyl-4,5,6,7-tetrahydro-1H-imidazo[4,5-c]pyridine-6-carboxylic acid]
effect on renin-induced amnesia [2]: much less effective in preventing the amnesia | sensitivity of AII binding sites in the brain [5]: the majority of binding sites in the brain are DTT-insensitive and EXP655-sensitive

Molecule: CCOC(=O)C(CCc1ccccc1)NC(C)C(=O)N1CC2(CC3CCC2CC3)CC1C(=O)O (stereo not drawn) [Hoe 288]
uphill avoidance performance during retention testing (uphill avoidance): improved performance during retention testing | scopolamine-induced PA amnesia [6]: partially reversed the amnesia | effects of muscarinic receptor blockade on radial maze performance [7]: partially antagonized the effects of muscarinic receptor blockade | ACh in the striatum and hypothalamus [8]: significant decrease in ACh in the striatum and hypothalamus

Molecule: NC(=O)[C@@H]1CCCN1C(=O)[C@H](Cc1cnc[nH]1)NC(=O)[C@@H]1CCC(=O)N1 [thyrotropin releasing hormone]
retention of passive avoidance response [3]: no effect

IC50 (AII-1 receptor): 290 nM | IC50 (AII-2 receptor): 4300 nM
Molecule: CCCc1nc(-c2ccccc2)c(C=O)n1Cc1ccc(-c2ccccc2C(=O)O)cc1 [Compound B, 1-[(2'-carboxybiphenyl-4-yl)methyl]-4-phenyl-2-propylimidazole-5-carboxaldehyde]
AII-1 receptor block / affinity (AII-1 receptor subtype): show affinity for both AII-1 and AII-2 receptors | AII-2 receptor block / affinity (AII-2 receptor subtype): show affinity for both AII-1 and AII-2 receptors

IC50 (AII-1 receptor): 0.7 nM | IC50 (AII-2 receptor): 0.3 nM
Molecule: CNCC(=O)N[C@@H](CCCN=C(N)N)C(=O)N[C@H](C(=O)N[C@@H](Cc1ccc(O)cc1)C(=O)N[C@H](C(=O)N[C@@H](Cc1cnc[nH]1)C(=O)N1CCC[C@H]1C(=O)N[C@@H](C)C(=O)O)C(C)C)C(C)C [Saralasin]

Molecule: C[C@H](CS)C(=O)N1CCC[C@H]1C(=O)O [captopril]
effect of captopril on renin-induced amnesia ([2]; IVT captopril, applicant's laboratory): renin-induced amnesia can be prevented | renin-induced avoidance disruption (avoidance learning; captopril IVT prior to renin): prevented the renin-induced avoidance disruption | scopolamine-induced disruption of light/dark habituation performance (light/dark habituation; daily treatment): prevented | rate of acquisition of light/dark habituation performance (light/dark habituation; subchronic treatment): increased the rate of acquisition of light/dark habituation performance

Molecule: [1-sarcosine, 8-threonine]angiotensin II
antagonism of AII effect on ACh release ([4]; with AII): antagonized

Molecule: lysine-8-vasopressin
retention of passive avoidance response [3]: no effect

B1: renin: Renin (Sigma Chemicals), a stimulator of endogenous AII biosynthesis (protein, UniProt P00797 67-406, looked up)
Renin: LTLGNTTSSVILTNYMDTQYYGEIGIGTPPQTFKVVFDTGSSNVWVPSSKCSRLYTACVYHKLFDASDSSSYKHNGTELTLRYSTGTVSGFLSQDIITVGGITVTQMFGEVTEMPALPFMLAEFDGVVGMGFIEQAIGRVTPIFDNIISQGVLKEDVFSFYYNRDSENSQSLGGQIVLGGSDPQHYEGNFHYINLIKTGVWQIQMKGVSVGSSTLLCEDGCLALVDTGASYISGSTSSIEKLMEALGAKKRLFDYVVKCNEGPTLPDISFHLGGKEYTLTSADYVFQESYSSKKLCTLAIHAMDIPPPTGPTWALGATFIRKFYTEFDRRNNRIGFALAR
memory effect of renin ([2]; renin IVT): produces a reliable memory deficit; also recorded: produces a dose-related amnesia in a PA task | Median Retention Latency ([2]; renin alone 5.0 μg/5 μL IVT): 17 s | AII in CSF after renin ([9]; renin IVT): about 5,000 fmol per mL | AII in CSF before renin ([9]; starting level): 40 fmol per mL | avoidance learning (avoidance learning; renin IVT): disruption of avoidance learning
